Data as given in PubChem BioAssay (NCI).
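A five-concentration, 48-hour dose response in 96-well plates underlies each endpoint, interpolated linearly between surrounding concentrations. GI50: concentration for 50% inhibition of growth. TGI denotes the concentration required for complete inhibition of growth.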

Columns and labels:
Test in all cases: NCI anticancer screen, dose series, 48 h
786-0 renal = tested on: 786-0 renal
A498 renal = tested on: A498 renal
A549 NSCLC = tested on: A549 NSCLC
ACHN renal = tested on: ACHN renal
BT-549 breast = tested on: BT-549 breast
CAKI-1 renal = tested on: CAKI-1 renal
CCRF-CEM leukemia = tested on: CCRF-CEM leukemia
COLO 205 colon = tested on: COLO 205 colon
DU-145 prostate = tested on: DU-145 prostate
EKVX NSCLC = tested on: EKVX NSCLC
HCC-2998 colon = tested on: HCC-2998 colon
HCT-116 colon = tested on: HCT-116 colon
HCT-15 colon = tested on: HCT-15 colon
HL-60(TB) leukemia = tested on: HL-60(TB) leukemia
HOP-62 NSCLC = tested on: HOP-62 NSCLC
HOP-92 NSCLC = tested on: HOP-92 NSCLC
HS 578T breast = tested on: HS 578T breast
HT29 colon = tested on: HT29 colon
IGROV1 ovarian = tested on: IGROV1 ovarian
K-562 leukemia = tested on: K-562 leukemia
KM12 colon = tested on: KM12 colon
LOX IMVI melanoma = tested on: LOX IMVI melanoma
M14 melanoma = tested on: M14 melanoma
MALME-3M melanoma = tested on: MALME-3M melanoma
MCF7 breast = tested on: MCF7 breast
MDA-MB-231 breast = tested on: MDA-MB-231 breast
MDA-MB-435 = tested on: MDA-MB-435
MOLT-4 leukemia = tested on: MOLT-4 leukemia
NCI-H226 lung = tested on: NCI-H226 lung

Which results are given for `COc1ccc(-c2cc3c(N)ncnc3o2)cc1`?
GI50 (786-0 renal): > 25 µM; TGI (786-0 renal): > 25 µM; GI50 (A498 renal): 8.14 µM; TGI (A498 renal): > 25 µM; GI50 (A549 NSCLC): > 25 µM; TGI (A549 NSCLC): > 25 µM; GI50 (ACHN renal): > 25 µM; TGI (ACHN renal): > 25 µM; GI50 (BT-549 breast): > 25 µM; TGI (BT-549 breast): > 25 µM; GI50 (CAKI-1 renal): 17.6 µM; TGI (CAKI-1 renal): > 25 µM; GI50 (CCRF-CEM leukemia): > 25 µM; TGI (CCRF-CEM leukemia): > 25 µM; GI50 (COLO 205 colon): > 25 µM; TGI (COLO 205 colon): > 25 µM; GI50 (DU-145 prostate): 19.9 µM; TGI (DU-145 prostate): > 25 µM; GI50 (EKVX NSCLC): 3.59 µM; TGI (EKVX NSCLC): > 25 µM; GI50 (HCC-2998 colon): > 25 µM; TGI (HCC-2998 colon): > 25 µM; GI50 (HCT-116 colon): > 25 µM; TGI (HCT-116 colon): > 25 µM; GI50 (HCT-15 colon): > 25 µM; TGI (HCT-15 colon): > 25 µM; GI50 (HL-60(TB) leukemia): > 25 µM; TGI (HL-60(TB) leukemia): > 25 µM; GI50 (HOP-62 NSCLC): > 25 µM; TGI (HOP-62 NSCLC): > 25 µM; GI50 (HOP-92 NSCLC): 17.1 µM; TGI (HOP-92 NSCLC): > 25 µM; GI50 (HS 578T breast): 5.85 µM; TGI (HS 578T breast): > 25 µM; GI50 (HT29 colon): > 22.7 µM; TGI (HT29 colon): > 25 µM; GI50 (IGROV1 ovarian): 24.3 µM; TGI (IGROV1 ovarian): > 25 µM; GI50 (K-562 leukemia): > 25 µM; TGI (K-562 leukemia): > 25 µM; GI50 (KM12 colon): > 25 µM; TGI (KM12 colon): > 25 µM; GI50 (LOX IMVI melanoma): > 25 µM; TGI (LOX IMVI melanoma): > 25 µM; GI50 (M14 melanoma): > 19.1 µM; TGI (M14 melanoma): > 25 µM; GI50 (MALME-3M melanoma): 15.5 µM; TGI (MALME-3M melanoma): > 25 µM; GI50 (MCF7 breast): > 25 µM; TGI (MCF7 breast): > 25 µM; GI50 (MDA-MB-231 breast): > 25 µM; TGI (MDA-MB-231 breast): > 25 µM; GI50 (MDA-MB-435): > 25 µM; TGI (MDA-MB-435): > 25 µM; GI50 (MOLT-4 leukemia): > 25 µM; TGI (MOLT-4 leukemia): > 25 µM; GI50 (NCI-H226 lung): > 25 µM; TGI (NCI-H226 lung): > 25 µM
